# In patent US6489307B1, “Antisense compositions targeted to β1-adrenoceptor-specific mRNA and methods of use” (University of Florida, priority 1998, dated 2002):
# Entries after “also recorded” stand apart in the source; their conditions may differ.
# Key:
# Type in all cases: in vivo, rat (SHR)
# [1] = tested on: isolated perfused SHR hearts; experiment: Isolated perfused SHR hearts (Langendorff), response to isoproterenol; details: 48 hr after 1 mg/kg; vs inverted ODN
# Experimental: 48 hr after injection of 1 mg/kg β1-AS-ODN (n=9) or inverted ODN (n=6), SHRs were anesthetized and killed. Hearts were quickly removed and perfused via the aorta with oxygenated Krebs buffer (118 mmol/L NaCl, 18.75 mmol/L NaHCO3 1.2 mmol/L KH2PO4, 4.7 mmol/L KCl, 1.2 mmol/L MgSO4, 1.25 mmol/L CaCl2, 11.1 mmol/L glucose, and 0.01 mmol/L EDTA) at a constant flow of 7.0 mL/min. at 36° C. Coronary perfusion pressure was measured via a catheter placed proximal to the aorta and connected to a pressure transducer (Gould Staham P23ID, Eastlake, Ohio). A latex balloon filled with water and connected to the pressure transducer was inserted into the left ventricle through the left atrium to measure left ventricular end-diastolic pressure (LVEDP), left ventricular systolic pressure (LVSP), and developed left ventricular pressure (dLVP) (dLVP=LVSP−LVEDP). LVEDP during equilibration was set at 5 to 7 mm Hg. Coronary perfusion pressure, LVEDP, and LVSP were recorded continuously on a 4-channel recorder (Astro-Med, West Warwick, R.I.). […]
# Forty-eight hr after injection of 1 mg/kg β1-AS-ODN (n=9) or inverted-ODN (n=6), SHR were anesthetized and sacrificed. […] Coronary perfusion pressure (CPP) was measured via a catheter placed proximal to the aorta and connected to a pressure transducer (Gould Statham P23ID). […] CPP, LVEDP and LVSP were continuously recorded on a 4-channel recorder (Astro-Med). […]
# SHRs = experiment: Telemetric monitoring of conscious SHRs during dobutamine infusion
# Experimental: Two days after catherization of the jugular vein, control values were taken and 1 mg/kg β1-AS-ODN was injected. 48 hr later, rats were tested for the effect of β1-AS-ODN. The rats were allowed to recover until all the cardiovascular parameters returned to control values. […] For β1-stimulation, SHRs were infused with dobutamine (β1-selective agonist) through a jugular vein catheter at 5, 10, 20, and 40 μg·kg^−1·min.^−1. Each dose was given for 5 min. continuously and at 1-hr intervals until all the cardiovascular parameters returned to baseline values so as to avoid the effect of tachyphylaxis. BP and HR were sampled every 1 min. dP/dtmax was calculated from the slope of the rising pulse-pressure curve and determined every 1 min. The difference between values at each dose and baseline was denoted as Δ.
# Two days after catheterization of jugular vein, control values were taken and 1 mg/kg β1-AS-ODN was injected. Forty-eight hr later, rats were tested for the effect of β1-AS-ODN. The rats were allowed to recover until all the cardiovascular parameters returned to control values. […] For β1-stimulation, SHR were infused with dobutamine (β1-selective agonist) through jugular vein catheter at 5, 10, 20, 40 μg/kg/min. Each dose was given for 5 min continuously and at 1-hr intervals until all cardiovascular parameters returned to baseline so as to avoid the effect of tachyphylaxis. BP and HR were sampled every min. dP/dtmax was calculated from the slope of the rising pulse pressure curve and determined every min. The difference between values at each dose and baseline was denoted as Δ.
# β2-AR = experiment: β-adrenergic receptor binding assay on renal cortex membranes; details: 0.5 mg/kg i.v.
# Experimental: Four days after intravenous injection of saline (n=6) or 0.5 mg/kg inverted ODN (n=6) or 4, 10, 18 and 40 days after injection of 0.5 mg/kg β1-AS-ODN (n=24), animals were euthanized, and membranes were prepared from the renal cortex of the left kidneys as previously described (Baker and Pitha, 1982). For saturation studies, 100 μg membrane protein was incubated in triplicate with 6 concentrations of [^125](−)iodocyanopindolol (ICYP, NEN Life Science, 6.25 to 100 pmol/L) in a total volume of 250 μL containing 50 mmol/L Tris-HCl (pH 7.4) and 5 mmol/L MgCl2 at 36° C. for 60 min. The nonspecific and β2-adrenergic receptor binding levels were determined in the presence of 1 μmol/L (±)-alprenolol and […] CGP20712A (RBI), respectively. Then the reaction mixture was passed through a Whatman GF/B glass fiber filter with a Brandel harvester, and the bound radioactivity was counted for 1 min.
# [2] = tested on: spontaneously hypertensive rats; experiment: Left ventricular hypertrophy after 2-month treatment; details: end of 2-month treatment; vs controls
# Experimental: Adult spontaneously hypertensive rats (300-350 g) were treated with β1-AS-ODNs for more than 2 months. The blood pressure was reduced by 20-30 mmHg persistently throughout the treatment period (FIG. 11). Control animals receiving saline or INV-ODNs had no change in blood pressure. At the end of a 2-month treatment, the hearts were dissected and weighed.
# [3] = Tissue histology after repeated injections; details: three repeated injections, more than 2 months
# Excerpt: Safety profiles including liver transaminases, hematology, immune response and tissue pathology were investigated during three repeated injections of β1-AS-ODNs for extended periods of time.
# Heart, liver, spleen and kidney were subjected to pathological examination after three repeated injections of β1-AS-ODN for more than 2 months.
substance,measurement,setting,value
"5′-CCGCGCCCATGCCGA-3′ (phosphorothioate backbone, further chemistry not given here) [β1-AS-ODN, 15-mer antisense ODN targeted to the AUG start codon of rat β1-AR mRNA]",HR response to ISO,[1],not significantly decreased
same,dLVP-ISO dose-response curve (positive inotropic effect of ISO),[1],significantly shifted downward; also recorded: significantly shifted down
same,basal (resting) HR,"SHRs; 1 mg/kg, control 365±8",365±12 bpm
same,basal dP/dtmax,"SHRs; 1 mg/kg, control 2937±277",2922±249 mm Hg/s
same,resting dP/dtmax,"SHRs; 1 mg/kg, control 2937±277",2922±249 mmHg/sec
same,change in HR in the face of dobutamine,SHRs; 48 hr after 1 mg/kg,not significantly reduced
same,increase in dP/dtmax in the face of dobutamine,SHRs; 48 hr after 1 mg/kg,significantly (P<0.02) dampened
same,β2-AR level in renal cortex,β2-AR,not affected
same,left ventricular hypertrophy (LV/BW),[2],significantly reduced
same,"pathological examination of heart, liver, spleen and kidney",[3],No immunopathology or organ damage
